Measured values published in patent publication US20160220709A1, “PHOTOACOUSTIC IMAGING CONTRAST AGENT COMPOSITION” (Agency for Science, Technology and Research, priority 2013, published 2016).

Experiments:
[1] = In vitro photoacoustic (PA) signal measurement in polyethylene tubing, PA microscopy at 410 nm
From the text: The microscopy system consists of laser pulse generation and delivery, PA signal reception, and image reconstruction and display. Laser pulses, 4 ns wide, were generated at a frequency of 10 Hz by using an optical parametric oscillator (Surlite OPO Plus, Continuum, USA). The laser was pumped by a frequency-tripled Nd:YAG Q-switched laser (Surlite II-10, Continuum, USA). The incident wavelength was set at 410 nm. The custom-made 50-MHz ultrasonic transducer (Acoustic Sensor, Taiwan) has a −6 dB fractional bandwidth of 57.5%, focal length of 9 mm, and a 6 mm active element, offering an axial resolution of 32 μm and a lateral resolution of 61 μm.
Laser energy was delivered using a 1-mm multimodal fiber. The fiber tip was coaxially aligned with a convex lens, an axicon, a plexiglass mirror, and an ultrasonic transducer on an optical bench, forming dark-field illumination that was confocal with the focal point of the ultrasonic transducer. The incident energy density on the sample surface was well within American National Standards Institute (ANSI) safety limits. The transducer was immersed in an acrylic water tank during the imaging process, and the hole at the bottom of the tank was sealed with a piece of […] thick polyethylene film. A thin layer of ultrasonic gel was applied as a PA conductive medium, which was then attached to the thin polyethylene film to ensure reliable coupling of the PA waves with the water tank. The PA signals received by the ultrasonic transducer were pre-amplified by a low-noise amplifier (noise FIG. 1.2 dB, gain 55 dB, AU-3A-0110, USA), cascaded to an ultrasonic receiver (5073 PR, Olympus, USA) and then digitized and sampled by a computer-based 14-bit analog to digital (A/D) card (CompuScope 14220, GaGe, USA) at a 200-MHz sampling rate for data storage.
Fluctuations in the laser energy were monitored with a photodiode (DET36A/M, Thorlabs, USA). The recorded photodiode signals were measured prior to the experiment to compensate for PA signal variations caused by laser-energy instability. The achievable penetration depth of the current PA microscopy system was 3 mm with approximately 18-dB SNR, where SNR is defined as the ratio of the signal peak value to the root-mean-square value of the noise. Three scan types can be provided by this system: A-line (i.e., one-dimensional images where the axis represents the imaging depth), B-scan (i.e., two-dimensional images where one axis is the lateral scanning distance and the other is the imaging depth), and C-scan (i.e., projection images from the three-dimensional images). The amplitude of the envelope-detected PA signals was used in the subsequent functional imaging analysis.
For both in vivo and in vitro imaging, the laser was pulsed with a pulse repetition rate of 10 Hz and coupled by a lens to an optical fiber to illuminate the ROI. A window at the bottom of the water container was sealed with an optically and ultrasonically transparent, disposable polyethylene film. After a commercially available ultrasound gel was applied to the brain for acoustic coupling, the brain was placed between the water container and the custom-made stereotaxic apparatus for imaging.
All the PA images in this study were acquired at 410 nm without any need for signal averaging, and yet the contrast quality of the PA images is high. […]

Water solubility = format: physicochemical
[2] = In vivo PA imaging of rat cortical vasculature (superior sagittal sinus); conditions: 200 μL of 30 μM, retro-orbital injection, 20 min after administration, 410 nm
From the text: Cortical vasculature of the rat was in vivo imaged at 32×61 μm resolution, with a designed 50-MHz dark-field confocal PA microscopy system (FIG. 4); the PA signal at λ410 was acquired. The SSS is the largest vein in the rodent brain cortex, and a selected section of it is the region-of-interest (ROI) in this study (FIG. 5B). There is strong clinical evidence that controlling cerebral venous blood flow is critically important for patients with severe traumatic brain injury as well as for patients undergoing cardiac surgery. Then, the SSS is a large central cerebral vein at cortical layer, and collects blood flow from both hemispheres before emptying into the internal jugular vein. That is, accurate measurements of blood flow changes in the SSS are thus very important.
Six male Wistar rats (NUS-CARE, Singapore), weighing 250-300 grams, were used. Animal experiments were conducted in accordance with guidelines from Institutional Animal Care and Use Committee (IACUC) at the National University of Singapore. The rats were fasted for 24 h prior to the imaging experiments, but were given water ad libitum. They were anesthetized with isoflurane (2 to 3% in 100% O2), mounted in a dorsal position over a custom-made acrylic stereotaxic holder, and the skin and muscle on the skull were removed to expose the bregma landmark. […]

[3] = test system: oral squamous cell carcinoma (OSCC) cells; experiment: Cell viability study (MTS / CCK8 cytotoxicity assay); format: cell-based; conditions: 0.01-30 μM, 24 h incubation
Protocol: Five thousand oral squamous cell carcinoma (OSCC) cells were seeded in a 96-well plate for 24 h before a solution of 2 in DMEM ([…]) with the indicated concentrations (0.01-30 μM) was introduced into each well. After incubation for 24 h, 10 μL of CCK8 (cell counting kit-8, Sigma-Aldrich) was added to each well. Cell absorbance was measured with a SpectraMax 384 Plus spectral analyser after 4 h, with 450 nm excitation.

| Compound | PA signal relative to that for single-walled carbon nanotubes (SWNT) [1] | PA signal relative to that for 1a ([1]; water/ethanol (60:40, v/v)) | PA signal relative to that for 1b ([1]; water/ethanol (60:40, v/v)) | PA signal, rank among the three carbonyl clusters ([1]; water/ethanol (60:40, v/v)) | water solubility (Water solubility) | clarity of brain vasculature in PA B-scan image compared to intrinsic optical contrast [2] | concentration down to which PA signal of aqueous solution is adequate ([1]; aqueous solution, B-scan) | effect on viability of cells (cytotoxicity) [3] |
| --- | --- | --- | --- | --- | --- | --- | --- | --- |
| [C-]#[O+].[C-]#[O+].[C-]#[O+].[C-]#[O+].[C-]#[O+].[C-]#[O+].[C-]#[O+].[C-]#[O+].[C-]#[O+].[C-]#[O+].[C-]#[O+].[C-]#[O+].[Os].[Os].[Os] [1c, Os3(CO)12] | 2.4 times higher | about 1.5 times higher | ~1.2 times higher | highest PA signal | low water solubility |  |  |  |
| Os3(CO)10(μ-H)μ-S(CH2)2COO^−Na^+ [compound 2] |  |  |  |  | water-soluble | greater clarity | 2.5 µM | little effect on the viability of cells |
